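All cell lines were grown in 96-well plates and treated with compound for 48 hours. Abbreviation: GI50, concentration required for 50% inhibition of growth. TGI: total growth inhibition.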
Assays:
Assay in all cases: inhibition of tumour cell growth, NCI panel, 48 h
K-562 leukemia = tested on: K-562 leukemia
SK-MEL-28 melanoma = tested on: SK-MEL-28 melanoma
SNB-75 CNS = tested on: SNB-75 CNS
BT-549 breast = tested on: BT-549 breast
HCC-2998 colon = tested on: HCC-2998 colon
KM12 colon = tested on: KM12 colon
HCT-116 colon = tested on: HCT-116 colon
HOP-62 NSCLC = tested on: HOP-62 NSCLC
A498 renal = tested on: A498 renal
NCI/ADR-RES ovarian = tested on: NCI/ADR-RES ovarian

| Compound | GI50 (K-562 leukemia) | TGI (K-562 leukemia) | GI50 (SK-MEL-28 melanoma) | TGI (SK-MEL-28 melanoma) | GI50 (SNB-75 CNS) | TGI (SNB-75 CNS) | GI50 (BT-549 breast) | TGI (BT-549 breast) | GI50 (HCC-2998 colon) | TGI (HCC-2998 colon) | GI50 (KM12 colon) | TGI (KM12 colon) | GI50 (HCT-116 colon) | TGI (HCT-116 colon) | GI50 (HOP-62 NSCLC) | TGI (HOP-62 NSCLC) | GI50 (A498 renal) | TGI (A498 renal) | GI50 (NCI/ADR-RES ovarian) | TGI (NCI/ADR-RES ovarian) |
| --- | --- | --- | --- | --- | --- | --- | --- | --- | --- | --- | --- | --- | --- | --- | --- | --- | --- | --- | --- | --- |
| COc1ccc(-c2nn(-c3cccc(NC(=O)Nc4cccc(C(F)(F)F)c4)c3)cc2-c2ccncc2)cc1Cl | 1.92 µM | > 100 µM | 2.57 µM | 22.6 µM | 1.51 µM | 8.37 µM | 1.68 µM | 4.55 µM | 5.32 µM | > 100 µM | 1.47 µM | 5.23 µM | 1.31 µM | 9.04 µM | 2.81 µM | 10.9 µM | 1.61 µM | 5.81 µM | 2.29 µM | > 100 µM |
| Clc1ccc(-c2cn(-c3ccccc3)c(-c3ccccc3)n2)c(Cl)c1 | > 24.6 µM | > 50 µM | 4.86 µM | > 41.2 µM | 0.864 µM | 2.2 µM | 3.42 µM | > 50 µM |  | > 25.5 µM | 0.932 µM | 2.02 µM | 1.09 µM | 2.66 µM | 1.36 µM | 5.02 µM | 12.6 µM | > 45.1 µM | 3.51 µM | > 44.9 µM |
| CC(C)[C@@H](CS(=O)(=O)C(C)C)N1C(=O)[C@@](C)(CC(=O)O)C[C@H](c2cccc(Cl)c2)[C@H]1c1ccc(Cl)cc1 | 18.3 µM | > 100 µM | 15.5 µM | 61.2 µM | 12.2 µM | > 85.8 µM | 12.9 µM | 40.3 µM | 16.7 µM | 37.7 µM | 16 µM | > 51.6 µM | 0.454 µM | 17.2 µM | 17.2 µM | 56.7 µM | 0.537 µM | 16.8 µM | 24.7 µM | > 100 µM |
| C=C1C(=O)O[C@H]2[C@H]1CC(=O)/C(C)=C\CC[C@@]1(C)O[C@@H]21 | 0.842 mg/L | 4.15 mg/L | 1.51 mg/L | 6.11 mg/L | 4.93 mg/L | 9.57 mg/L | 3.41 mg/L | 7 mg/L | 3.47 mg/L | 7.4 mg/L | 4.77 mg/L | 8.79 mg/L | 1.26 mg/L | 4.97 mg/L | 4.31 mg/L | 8.45 mg/L | 5.55 mg/L | 11.3 mg/L | 1.1 mg/L | 4.45 mg/L |
| COc1cc2c3c(n(C)c(=O)c2cc1OC)-c1cc2c(cc1/C3=C\[C@@H](N)CCCCN)OCO2 | 2.43 µM | > 72.2 µM | 1.39 µM | > 100 µM | 0.985 µM | > 41.3 µM | 4.52 µM | 28.3 µM | 2.99 µM | 45.9 µM | 1.58 µM | > 100 µM | 0.329 µM | 14.4 µM | 3.14 µM | 26.9 µM | 5.14 µM | 33.9 µM | 29.7 µM | > 100 µM |
| CC(=O)OC1=C2C(CC3C4CC=C5CC(OC(C)=O)CCC5(C)C4CCC23C)C2C(=O)N(Cc3ccccc3)C(=O)C2C1 (stereo unspecified) | 4.33 µM | > 100 µM | 28.9 µM | > 100 µM | 5.54 µM | 86.5 µM | 3.53 µM | 13.5 µM | 11.4 µM | 67 µM | 5.98 µM | 46.8 µM | 3.82 µM | 17.2 µM | 35.9 µM | > 100 µM | 10.9 µM | 43.6 µM | 5.53 µM | 28.2 µM |
| COc1cccc(C2C(C#N)=C(N)Oc3cc(OC)ccc32)c1 (stereo unspecified) | 0.0203 µM | > 100 µM | 0.0577 µM | > 100 µM | 0.0263 µM | > 49.6 µM | 0.106 µM | 17 µM | 0.0594 µM |  | 0.0314 µM | 5.61 µM | 0.0479 µM | 12.4 µM | 0.0418 µM | > 76.6 µM | 0.0198 µM | 0.0709 µM | 0.0184 µM |  |
| COc1ccc(C(=O)N/N=C/c2ccc(O)cc2O)cc1Nc1ccnc(C(F)(F)F)c1 | 0.485 µM | > 35.6 µM | 0.298 µM | 4.98 µM | 2.22 µM | 49.8 µM | 0.916 µM | 23.8 µM | 0.513 µM | 22.1 µM | 1.82 µM | 13.9 µM | 0.354 µM | 8.77 µM | 0.495 µM | 12.7 µM | 0.193 µM | 9.33 µM | 11.9 µM | > 100 µM |
| CN1c2ccccc2C(C)(C)C12CC(c1ccc(Cl)c(S(=O)(=O)N3CCCC3)c1)=NO2 (stereo unspecified) |  |  | > 100 µM | > 100 µM | > 100 µM | > 100 µM | > 100 µM | > 100 µM | > 100 µM | > 100 µM |  |  |  |  | 83.7 µM | > 100 µM | > 100 µM | > 100 µM | > 100 µM | > 100 µM |
| NCC(=O)CCC(=O)O | > 100 µM | > 100 µM | > 100 µM | > 100 µM | > 100 µM | > 100 µM | > 100 µM | > 100 µM | > 100 µM | > 100 µM | > 100 µM | > 100 µM | > 100 µM | > 100 µM | > 100 µM | > 100 µM | > 100 µM | > 100 µM | > 100 µM | > 100 µM |
| c1ccc2c(c1)ccc1c3ccccc3ccc21 | > 50 µM | > 50 µM | > 50 µM | > 50 µM | > 50 µM | > 50 µM | > 50 µM | > 50 µM | > 50 µM | > 50 µM | > 50 µM | > 50 µM | > 50 µM | > 50 µM | > 50 µM | > 50 µM | > 50 µM | > 50 µM | > 50 µM | > 50 µM |
| C=C(C(=O)OC)[C@@H]1C[C@@H](O)[C@]2(C)CC/C=C(\C)CCC[C@H](C)[C@H](O)C1O2 | 22.2 µM | 62.2 µM | > 100 µM | > 100 µM | > 100 µM | > 100 µM | 29.5 µM | 79.1 µM | 73 µM | > 100 µM | 41 µM | > 100 µM | 21.1 µM | 58 µM | > 100 µM | > 100 µM | 65.9 µM | > 100 µM | 83.7 µM | > 100 µM |

Reference: PubChem BioAssay (NCI)
